Measurements as given in patent US20110256238A1, “WOOD PRESERVATIVE AND WOOD PROCESSING METHOD” (SDS BIOTECH K.K., priority 2008, published 2011).

Test system: Trametes versicolor
Assay: Agar medium colony growth inhibition test on Trametes versicolor, with Colby synergy calculation
Assay type: cell-based
Conditions: single compound, 0.2 ppm, potato dextrose agar, 25° C., seventh day
Protocol: Each of 1% w/v dimethylsulfoxide solution of compound A, cyproconazole (manufactured by Wako Pure Chemical Industries, Ltd.), epoxyconazole (manufactured by Wako Pure Chemical Industries, Ltd.) and tetraconazole (manufactured by Wako Pure Chemical Industries, Ltd.) was prepared. The solutions diluted with dimethylsulfoxide were fully mixed in the sterilized potate dextrose agar medium, and 15 ml of the resultant medium was poured into a petri dish 90 mm in diameter and allowed to stand at room temperature. As a control, the potate dextrose agar medium added with dimethylsulfoxide only was also prepared. After the medium was solidified, the mycelia was scooped with the medium from the colony of Trametes versicolor as being a typical wood-decaying fungi, which had been cultivated in advance, using a cork baller 5 mm in diameter; and inoculated in the center of the test medium. The fungi was cultivated in the petri dish at 25° C., and the diameter of the colony spread from the source of inoculum was measured on the seventh day. The growth inhibition ratio by comparing the diameter of the test colony to that of the control was determined by the above-mentioned formula as an indication of the actual measured growth inhibition ratio. The theoretical efficacy ratio of the mixture of the active ingredients (i.e. theoretical growth inhibition ratio) was determined using the following Colby's formula (R. S. Colby, Weeds 15, 20-22 (1967)) to thereby be compared with the actual-measured efficacy ratio ([…]).
Colby's formula: E=x+y−x·y/100 [Formula 2]
E: theoretical efficacy ratio (theoretical growth inhibition ratio) represented by the ratio (%) to the control when the mixture of active compound B (concentration b) and C (concentration c) was used. x: efficacy ratio (growth inhibition ratio) represented by the ratio (%) to the control when active compound B was used at a concentration of b. y: efficacy ratio (growth inhibition ratio) represented by the ratio (%) to the control when active compound C was used at a concentration of c.
In the case of Fc1ccc([C@]2(Cn3cncn3)O[C@H]2c2ccccc2Cl)cc1 (racemic) [Epoxiconazole], the “Actual measured growth inhibition ratio (%)” value is reported as 24%. With CC(C)c1cccc(NC(=O)c2ccccc2C(F)(F)F)c1 [Compound A, 3′-isopropyl-2-trifluoromethyl benzoic acid anilide] the “Actual measured growth inhibition ratio (%)” value was 35%. In the case of FC(F)C(F)(F)OCC(Cn1cncn1)c1ccc(Cl)cc1Cl (stereo not shown) [Tetraconazole], the “Actual measured growth inhibition ratio (%)” value is reported as 25%. For CC(C1CC1)C(O)(Cn1cncn1)c1ccc(Cl)cc1 (stereo not shown) [cyproconazole], the “Actual measured growth inhibition ratio (%)” value was 33%.

Test system: Coniphora puteana
Assay: Agar medium colony growth inhibition test on Coniphora puteana
Assay type: cell-based
Conditions: 0.2 ppm in potato dextrose agar, 25° C., colony diameter on the seventh day vs control
Protocol: A predetermined amount of the solutions diluted with dimethylsulfoxide were fully mixed in the sterilized potato dextrose agar medium, and 15 ml of the resultant medium was poured into a petri dish 90 mm in diameter and allowed to stand at room temperature. As a control, the potato dextrose agar medium added with dimethylsulfoxide only was also prepared. […] The fungi was cultivated in the petri dish at 25° C., and the diameter of the colony spread from the source of inoculum was measured on the seventh day. The growth inhibition ratio between the diameter of the test colony and that of the control was determined by the following formula as an indication of the degree of inhibition. Compound A apparently had greater effects on Coniphora puteana compared to the compounds which had been disclosed in the past. Growth inhibition ratio (%)={(diameter of the control colony−diameter of the test colony)/diameter of the control colony}×100 [Formula 1]
With CC(C)Oc1cccc(NC(=O)c2ccccc2C(F)(F)F)c1 [compound 1, 3′-isopropoxy-2-trifloromethyl benzoic acid anilide] the “Degree of inhibition on Coniphora puteana at 0.2 ppm” value (“Degree of inhibition” for short) was “▴ (inhibition ratio of 25 to 50%)”. In the case of Cc1ccccc1C(=O)Nc1cccc(OC(C)C)c1 [compound 2, 3′-isopropoxy-2-methyl benzoic acid anilide], the “Degree of inhibition” value is reported as “▴ (inhibition ratio of 25 to 50%)”. In the case of Cc1ccccc1C(=O)Nc1cccc(C(C)C)c1 [compound 3, 3′-isopropyl-2-methyl benzoic acid anilide], the “Degree of inhibition” value is reported as “▴ (inhibition ratio of 25 to 50%)”. In the case of CC(C)c1cccc(NC(=O)c2ccccc2I)c1 [compound 4, 3′-isopropyl-2-iodobenzoic acid anilide], the “Degree of inhibition” value is reported as “▴ (inhibition ratio of 25 to 50%)”. In the case of CC(C)Oc1cccc(NC(=O)c2ccccc2I)c1 [compound 5, 3′-isopropoxy-2-iodobenzoic acid anilide], the “Degree of inhibition” value is reported as “▴ (inhibition ratio of 25 to 50%)”. For CC(C)c1cccc(NC(=O)c2ccccc2[N+](=O)[O-])c1 [compound 6, 3′-isopropyl-2-nitrobenzoic acid anilide], the “Degree of inhibition” value was “x (inhibition ratio of 25% or less)”. With CC(C)c1cccc(NC(=O)c2ccccc2Br)c1 [compound 7, 3′-isopropyl-2-bromobenzoic acid anilide] the “Degree of inhibition” value was “▴ (inhibition ratio of 25 to 50%)”. For O=C(Nc1ccccc1)c1ccccc1C(F)(F)F [compound 8, 2-trifloromethyl benzoic acid anilide], the “Degree of inhibition” value was “x (inhibition ratio of 25% or less)”. For CC(C)c1ccccc1NC(=O)c1ccccc1C(F)(F)F [compound 9, 2′-isopropyl-2-trifloromethyl benzoic acid anilide], the “Degree of inhibition” value was “x (inhibition ratio of 25% or less)”. In the case of CC(C)c1ccc(NC(=O)c2ccccc2C(F)(F)F)cc1 [compound 10, 4′-isopropyl-2-trifloromethyl benzoic acid anilide], the “Degree of inhibition” value is reported as “x (inhibition ratio of 25% or less)”. For Cc1cccc(NC(=O)c2ccccc2C(F)(F)F)c1 [compound 11, 3′-methyl-2-trifloromethyl benzoic acid anilide], the “Degree of inhibition” value was “▴ (inhibition ratio of 25 to 50%)”. For CCc1cccc(NC(=O)c2ccccc2C(F)(F)F)c1 [compound 12, 3′-ethyl-2-trifloromethyl benzoic acid anilide], the “Degree of inhibition” value was “▴ (inhibition ratio of 25 to 50%)”. For O=C(Nc1cccc(C(F)(F)F)c1)c1ccccc1C(F)(F)F [compound 13, 2,3′-trifluoromethyl benzoic acid anilide], the “Degree of inhibition” value was “x (inhibition ratio of 25% or less)”. In the case of O=C(Nc1cccc(OC(F)(F)F)c1)c1ccccc1C(F)(F)F [compound 14, 3′-trifluoromethoxy-2-trifloromethyl benzoic acid anilide], the “Degree of inhibition” value is reported as “x (inhibition ratio of 25% or less)”. For O=C(Nc1cccc(F)c1)c1ccccc1C(F)(F)F [compound 15, 3′-fluoro-2-trifloromethyl benzoic acid anilide], the “Degree of inhibition” value was “x (inhibition ratio of 25% or less)”. In the case of O=C(Nc1cccc(Cl)c1)c1ccccc1C(F)(F)F [compound 16, 3′-chloro-2-trifloromethyl benzoic acid anilide], the “Degree of inhibition” value is reported as “x (inhibition ratio of 25% or less)”. With O=C(Nc1cccc(Br)c1)c1ccccc1C(F)(F)F [compound 17, 3′-bromo-2-trifloromethyl benzoic acid anilide] the “Degree of inhibition” value was “x (inhibition ratio of 25% or less)”. For O=C(Nc1cccc(I)c1)c1ccccc1C(F)(F)F [compound 18, 3′-iodo-2-trifloromethyl benzoic acid anilide], the “Degree of inhibition” value was “x (inhibition ratio of 25% or less)”. For Cc1ccc(C(C)C)cc1NC(=O)c1ccccc1C(F)(F)F [compound 19, 5′-isopropyl-2′-methyl-2-trifluoromethyl benzoic acid anilide], the “Degree of inhibition” value was “x (inhibition ratio of 25% or less)”.

Same assay, conditions: 0.2 ppm in potato dextrose agar, 25° C., colony diameter on the seventh day vs control; read-out: Degree of inhibition on Coniphora puteana at 0.2 ppm
Work on CC(C)c1cccc(NC(=O)c2ccccc2C(F)(F)F)c1 [Compound A, 3′-isopropyl-2-trifluoromethyl benzoic acid anilide] yielded an inhibition at 0.2 ppm of at least 75%.

Test system: not given
Assay: not given
Conditions: not given
In the case of CC(C)c1cccc(NC(=O)c2ccccc2C(F)(F)F)c1 [Compound A, 3′-isopropyl-2-trifluoromethyl benzoic acid anilide], the melting point is reported as 98 to 101 °C.
